# What was measured:
# [1] = target: T1, Human Factor XIIa (Homo sapiens, UniProt P00748); test: Determination of the % Inhibition for FXIIa (IC50, fluorogenic substrate H-DPro-Phe-Arg-AFC); assay type: biochemical; conditions: Human Factor XIIa (Enzyme Research Laboratories), 25° C.
# T1 construct: purchased Enzyme Research Laboratories
# T1 sequence (P00748 373-615 limits assumed): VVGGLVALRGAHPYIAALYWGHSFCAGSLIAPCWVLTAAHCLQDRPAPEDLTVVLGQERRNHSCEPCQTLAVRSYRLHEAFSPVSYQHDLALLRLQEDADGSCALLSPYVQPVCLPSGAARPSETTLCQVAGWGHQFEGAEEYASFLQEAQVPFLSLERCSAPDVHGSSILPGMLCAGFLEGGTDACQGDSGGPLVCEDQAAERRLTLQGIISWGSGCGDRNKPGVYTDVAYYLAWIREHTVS
# Procedure: Determination of the % Inhibition for FXIIa
# Factor XIIa inhibitory activity in vitro was determined using standard published methods (see e.g. Shori et al., Biochem. Pharmacol., 1992,43, 1209; Baeriswyl et al., ACS Chem. Biol., 2015, 10 (8) 1861; Bouckaert et al., European Journal of Medicinal Chemistry 110 (2016) 181). Human Factor XIIa (Enzyme Research Laboratories) was incubated at 25° C. with the fluorogenic substrate H-DPro-Phe-Arg-AFC and various concentrations of the test compound. Residual enzyme activity (initial rate of reaction) was determined by measuring the change in […] at 410 nm and the IC50 value for the test compound was determined.
# [2] = target: T2, Human FXIa (Homo sapiens, UniProt P03951); test: Determination of the % Inhibition for FXIa (IC50, fluorogenic substrate Z-Gly-Pro-Arg-AFC); assay type: biochemical; conditions: Selectivity, Human FXIa (Enzyme Research Laboratories), 25° C.
# T2 construct: purchased Enzyme Research Laboratories
# T2 sequence (P03951 388-625 limits assumed): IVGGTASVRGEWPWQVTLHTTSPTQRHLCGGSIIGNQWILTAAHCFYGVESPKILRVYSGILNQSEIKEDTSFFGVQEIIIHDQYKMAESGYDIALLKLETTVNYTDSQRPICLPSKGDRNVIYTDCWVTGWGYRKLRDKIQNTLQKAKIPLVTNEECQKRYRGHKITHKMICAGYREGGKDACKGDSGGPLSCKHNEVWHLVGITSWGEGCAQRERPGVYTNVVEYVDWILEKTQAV
# T2 sequence (P03951 19-387 partner limits assumed): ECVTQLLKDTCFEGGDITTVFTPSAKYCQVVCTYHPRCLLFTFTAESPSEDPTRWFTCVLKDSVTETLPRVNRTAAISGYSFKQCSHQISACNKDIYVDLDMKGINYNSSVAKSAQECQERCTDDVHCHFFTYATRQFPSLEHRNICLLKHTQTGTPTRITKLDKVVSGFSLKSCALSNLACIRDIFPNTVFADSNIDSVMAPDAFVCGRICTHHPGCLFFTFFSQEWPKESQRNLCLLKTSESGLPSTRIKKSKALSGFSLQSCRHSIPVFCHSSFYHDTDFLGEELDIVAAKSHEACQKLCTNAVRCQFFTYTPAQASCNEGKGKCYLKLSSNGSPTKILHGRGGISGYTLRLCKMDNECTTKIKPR
# Procedure: Determination of the % Inhibition for FXIa
# FXIa inhibitory activity in vitro was determined using standard published methods (see e.g. Johansen et al., Int. J. Tiss. Reac. 1986, 8, 185; Shori et al., Biochem. Pharmacol., 1992, 43, 1209; Stürzebecher et al., Biol. Chem. Hoppe-Seyler, 1992, 373, 1025). Human FXIa (Enzyme Research Laboratories) was incubated at 25° C. with the fluorogenic substrate Z-Gly-Pro-Arg-AFC and various concentrations of the test compound. Residual enzyme activity (initial rate of reaction) was determined by measuring the change in fluorescence at 410 nm and the IC50 value for the test compound was determined.
Structure (SMILES),IC50 [1],IC50 [2]
"CN1CCC(OCc2ccc(NCc3ccc4c(N)nccc4c3)nc2)CC1 [Example 18.03, 6-(((5-(((1-Methylpiperidin-4-yl)oxy)methyl)pyridin-2-yl)amino)methyl)isoquinolin-1-amine]",< 1 µM,> 40 µM
CN1CCC(Oc2cc(NCc3ccc4c(N)nccc4c3)ncn2)CC1 [Example 18.209],1 to 3 µM,–
CN1CCC(COc2ccc(NCc3ccc4c(N)nccc4c3)cn2)CC1 [Example 18.12],–,33.1 µM
CN1CCC(COc2ccc(NCc3ccc4c(N)nccc4c3)cc2CCO)CC1 [Example 18.17],< 1 µM,–
"CN1CCC(COc2ccc(NCc3ccc4c(N)nccc4c3)cc2)CC1 [Example 18.18, 6-(((4-((1-Methylpiperidin-4-yl)methoxy)phenyl)amino)methyl)isoquinolin-1-amine]",< 1 µM,–
"Nc1nccc2cc(CNc3ccc(COC4CCNCC4)cn3)ccc12 [Example 18.19, 6-(((5-((Piperidin-4-yloxy)methyl)pyridin-2-yl)amino)methyl)isoquinolin-1-amine]",3 to 10 µM,–
"CN1CCC(Oc2ccc(NCc3ccc4c(N)nccc4c3)nc2)CC1 [Example 18.01, 6-(((5-((1-Methylpiperidin-4-yl)oxy)pyridin-2-yl)amino)methyl)isoquinolin-1-amine]",1 to 3 µM,36.4 µM
Nc1nccc2cc(CNc3ccc(OC4CCNCC4)cc3)ccc12 [Example 18.07],1 to 3 µM,–
CN1CCC(Oc2cnc(NCc3ccc4c(N)nccc4c3)cn2)CC1 [Example 18.05],< 1 µM,19.9 µM
"CN1CCC(COc2cnc(NCc3ccc4c(N)nccc4c3)cn2)CC1 [Example 18.10, 6-(((5-((1-Methylpiperidin-4-yl)methoxy)pyrazin-2-yl)amino)methyl)isoquinolin-1-amine]",< 1 µM,24.8 µM
"CN1CCC(CNC(=O)c2cccc(NCc3ccc4c(N)nccc4c3)n2)CC1 [Example 18.201, 6-(((1-Aminoisoquinolin-6-yl)methyl)amino)-N-((1-methylpiperidin-4-yl)methyl)picolinamide]",3 to 10 µM,–
Nc1nccc2cc(CNc3cc(OCCN4CCOCC4)ccn3)ccc12 [Example 18.208],10 to 40 µM,–
"Nc1nccc2cc(CNc3cc(OC4CCNCC4)ccn3)ccc12 [Example 18.213, 6-(((4-(Piperidin-4-yloxy)pyridin-2-yl)amino)methyl)isoquinolin-1-amine]",3 to 10 µM,–
"CN1CCC(Oc2cncc(NCc3ccc4c(N)nccc4c3)n2)CC1 [Example 18.207, 6-(((6-((1-Methylpiperidin-4-yl)oxy)pyrazin-2-yl)amino)methyl)isoquinolin-1-amine]",10 to 40 µM,–
CN1CCCC(Oc2ccnc(NCc3ccc4c(N)nccc4c3)c2)C1 (stereo not shown) [Example 18.210],1 to 3 µM,–
CN1CCC(NC(=O)c2ccc(NCc3ccc4c(N)nccc4c3)nc2)CC1 [Example 18.16],10 to 40 µM,–

Structure (SMILES),IC50 [1],IC50 [2]
"CN1CCC(COc2ccc(NCc3ccc4c(N)nccc4c3)nc2)CC1 [Example 18.04, 6-(((5-((1-Methylpiperidin-4-yl)methoxy)pyridin-2-yl)amino)methyl)isoquinolin-1-amine]",< 1 µM,> 40 µM
CN1CCC(CNC(=O)c2ccc(NCc3ccc4c(N)nccc4c3)nc2)CC1 [Example 18.13],3 to 10 µM,–
"CN1CCC(NC(=O)c2ccnc(NCc3ccc4c(N)nccc4c3)c2)CC1 [Example 18.204, 2-(((1-Aminoisoquinolin-6-yl)methyl)amino)-N-(1-methylpiperidin-4-yl)isonicotinamide]",3 to 10 µM,–
CN1CCC(Oc2cccc(NCc3ccc4c(N)nccc4c3)n2)CC1 [Example 18.203],10 to 40 µM,–
"CN1CCC(COc2ccc(NCc3ccc4c(N)nccc4c3)cc2CO)CC1 [Example 18.15, (5-(((1-Aminoisoquinolin-6-yl)methyl)amino)-2-((1-methylpiperidin-4-yl)methoxy)phenyl)methanol]",< 1 µM,–
"CN1CCC(Oc2ccnc(NCc3ccc4c(N)nccc4c3)c2)CC1 [Example 18.202, 6-(((4-((1-methylpiperidin-4-yl)oxy)pyridin-2-yl)amino)methyl)isoquinolin-1-amine]",< 1 µM,> 40 µM
"CN1CCC(Oc2cnc(NCc3ccc4c(N)nccc4c3)nc2)CC1 [Example 18.02, 6-[({5-[(1-Methylpiperidin-4-yl)oxy]pyrimidin-2-yl}amino)methyl]isoquinolin-1-amine]",10 to 40 µM,–
CN1CCC(Oc2cccc(NCc3ccc4c(N)nccc4c3)c2)CC1 [Example 18.211],1 to 3 µM,–
"CN1CCC(Oc2ccc(NCc3ccc4c(N)nccc4c3)cc2)CC1 [Example 18.08, 6-(((4-((1-Methylpiperidin-4-yl)oxy)phenyl)amino)methyl)isoquinolin-1-amine]",< 1 µM,> 40 µM
"CN1CCC(OCc2ccnc(NCc3ccc4c(N)nccc4c3)c2)CC1 [Example 18.206, 6-(((4-(((1-Methylpiperidin-4-yl)oxy)methyl)pyridin-2-yl)amino)methyl)isoquinolin-1-amine]",1 to 3 µM,–
"CN1CCC(COc2ccc(NCc3ccc4c(N)nccc4c3)cn2)CC1 [Example 18.11, 6-(((6-((1-Methylpiperidin-4-yl)methoxy)pyridin-3-yl)amino)methyl)isoquinolin-1-amine]",< 1 µM,17.9 µM
"Nc1nccc2cc(CNc3ccc(OCCN4CCOCC4)cn3)ccc12 [Example 18.09, 6-(((5-(2-Morpholinoethoxy)pyridin-2-yl)amino)methyl)isoquinolin-1-amine]",10 to 40 µM,–
CN1CCN(C(=O)c2ccnc(NCc3ccc4c(N)nccc4c3)c2)CC1 [Example 18.205],10 to 40 µM,–
CN1CCC(Oc2cncc(NCc3ccc4c(N)nccc4c3)c2)CC1 [Example 18.212],1 to 3 µM,–
CN1CCC(Oc2ccc(NCc3ccc4c(N)nccc4c3)nn2)CC1 [Example 18.06],1 to 3 µM,–
CN1CCCC(COc2ccc(NCc3ccc4c(N)nccc4c3)nc2)C1 (stereo not shown) [Example 18.14],1 to 3 µM,–

# From US20220363668A1, “ENZYME INHIBITORS” (KALVISTA PHARMACEUTICALS LIMITED, priority 2019, published 2022)
